In PMC10145285, “Diverse Biological Activity of Benzofuroxan/Sterically Hindered Phenols Hybrids” (Pharmaceuticals, 2023):
≈ marks a conversion by molar mass, not a printed value.

Tests used:
[1] = tested on: PC3; experiment: cells; assay type: cell-based; settings: Homo sapiens, PC-3, 48 h, read-out: IC50, PC3
[2] = tested on: MCF-7; experiment: cells; assay type: cell-based, human; settings: for IC50: Homo sapiens, MCF7, 48 h, read-out: IC50, MCF-7
[3] = tested on: T98G; experiment: cells; assay type: cell-based; settings: Homo sapiens, 48 h, read-out: IC50, T98G
[4] = tested on: A375; experiment: cells; assay type: cell-based; settings: Homo sapiens, A-375, 48 h, read-out: IC50, A375
[5] = tested on: WI38; experiment: cells; assay type: cell-based; settings: Homo sapiens, WI-38, 48 h, read-out: IC50, WI38
[6] = tested on: Staphylococcus aureus ATCC 6538P FDA 209P (Sa); experiment: Antimicrobial serial microdilution, Sa; assay type: cell-based; settings: Staphylococcus aureus; for MIC: read-out: Minimum Inhibitory Concentration (MIC), Sa; for MBC: read-out: Minimum bactericidal and fungicidal concentrations (MBC), (MFC), Sa
[7] = tested on: Bacillus cereus ATCC 10702 (Bc); experiment: Antimicrobial serial microdilution, Bc; assay type: cell-based; settings: for MIC: Bacillus cereus, ATCC10702, read-out: Minimum Inhibitory Concentration (MIC), Bc
[8] = tested on: Enterococcus faecalis ATCC 29212 (Ef); experiment: Antimicrobial serial microdilution, Ef; assay type: cell-based; settings: for MIC: Enterococcus faecalis, ATCC29212, read-out: Minimum Inhibitory Concentration (MIC), Ef
[9] = tested on: MRSA-1; experiment: Antimicrobial serial microdilution, MRSA-1; assay type: cell-based, Staphylococcus aureus; settings: Staphylococcus aureus, MRSA; for MIC: read-out: Minimum Inhibitory Concentration (MIC), MRSA-1; for MBC: read-out: Minimum bactericidal and fungicidal concentrations (MBC), (MFC), MRSA-1
[10] = tested on: MRSA-2; experiment: Antimicrobial serial microdilution, MRSA-2; assay type: cell-based, Staphylococcus aureus; settings: for MIC: read-out: Minimum Inhibitory Concentration (MIC), MRSA-2
[11] = tested on: HuTu 80, MCF-7 and human cervical carcinoma cell lines; experiment: cells; assay type: cell-based; settings: 120 h, read-out: IC50 range over HuTu 80, MCF-7 and human cervical carcinoma lines
[12] = tested on: M-HeLa
[13] = tested on: HuTu 80; experiment: cells; settings: Homo sapiens, HuTu80, 48 h, read-out: IC50, HuTu 80
[14] = 500 ng/mL spike, sampled 5, 15, 30 min, 1 and 2 hours; result in words
[15] = tested on: PANC-1; experiment: cells; settings: Homo sapiens, PANC-1, 48 h, read-out: IC50, PANC-1
[16] = tested on: M-HeLa; experiment: cells; settings: Homo sapiens, 48 h, read-out: IC50, M-HeLa
[17] = tested on: A549; experiment: cells; settings: Homo sapiens, A549, 48 h, read-out: IC50, A549
[18] = tested on: Chang Liver; experiment: cells; settings: Homo sapiens, 48 h, read-out: IC50, Chang Liver

SMILES	IC50 [1]	IC50 [2]	IC50 [3]	IC50 [4]	IC50 [5]	MIC [6]	MBC [6]	Minimum bactericidal and fungicidal concentrations (MBC), (MFC), Bc [7]	MIC [7]	Minimum bactericidal and fungicidal concentrations (MBC), (MFC), Ef [8]	MIC [8]	MIC [9]	MBC [9]	MIC ([10]; Staphylococcus aureus, MRSA)	IC50 [13]	IC50 [15]	IC50 [16]	IC50 [17]	IC50 [18]	also measured
CC(C)(C)c1cc(C(c2ccc(Nc3c([N+](=O)[O-])cc([N+](=O)[O-])c4no[n+]([O-])c34)nc2Nc2c([N+](=O)[O-])cc([N+](=O)[O-])c3no[n+]([O-])c23)P(=O)(Oc2ccccc2)Oc2ccccc2)cc(C(C)(C)C)c1O (centres unmarked) [5d, 7,7’-((3-((3,5-di-tert-butyl-4-hydroxyphenyl)(diphenoxyphosphoryl)methyl)pyridine-2,6-diyl)bis(azanediyl))bis(4,6-dinitrobenzo[c][1,2,5]oxadiazole 1-oxide)]	5.9 ± 0.4 µM	2.1 µM	4.8 ± 0.4 µM	5.9 ± 0.5 µM	8.4 ± 0.7 µM	15.6 ± 1.2 µg/mL (≈ 15.5 µM)	125 ± 10 µg/mL (≈ 124 µM)	-	62.5 ± 5.4 µg/mL (≈ 62 µM)	-	62.5 ± 5.2 µg/mL (≈ 62 µM)	62.5 ± 5.3 µg/mL (≈ 62 µM)	250 ± 20 µg/mL (≈ 248 µM)	250 ± 19 µg/mL (≈ 248 µM)	4.9 ± 0.3 µM	2.8 µM	2 µM	5.2 ± 0.4 µM	9.2 ± 1.9 µM	Times more active than the starting SHP, MCF-7 [2]: 7.6 times; MBC ([10]; Staphylococcus aureus, MRSA, read-out: Minimum bactericidal and fungicidal concentrations (MBC), (MFC), MRSA-2): 250 ± 19 µg/mL (≈ 248 µM); IC50 [11]: 0.9 to 5.9 µM; Times more active than the starting SHP, M-HeLa [12]: 3.7 times; Biostability in whole mice blood (peak area relative to 5 min value) [14]: metabolized, but its rate is quite low
COP(=O)(OC)C(c1cc(C(C)(C)C)c(O)c(C(C)(C)C)c1)c1ccc(Nc2c([N+](=O)[O-])cc([N+](=O)[O-])c3no[n+]([O-])c23)nc1Nc1c([N+](=O)[O-])cc([N+](=O)[O-])c2no[n+]([O-])c12 (centres unmarked) [5a, 7,7’-((3-((3,5-di-tert-butyl-4-hydroxyphenyl)(dimethoxyphosphoryl)methyl)pyridine-2,6-diyl)bis(azanediyl))bis(4,6-dinitrobenzo[c][1,2,5]oxadiazole 1-oxide)]	7.7 ± 0.6 µM	12.1 ± 1.1 µM	26.8 ± 2.2 µM	21.6 ± 1.8 µM	11.4 ± 0.9 µM	125 ± 11 µg/mL (≈ 141 µM)	250 ± 19 µg/mL (≈ 283 µM)	-	62.5 ± 5.3 µg/mL (≈ 70.7 µM)	-	125 ± 10 µg/mL (≈ 141 µM)	250 ± 20 µg/mL (≈ 283 µM)	250 ± 21 µg/mL (≈ 283 µM)	250 ± 20 µg/mL (≈ 283 µM)	11 ± 0.9 µM	13.5 ± 1.1 µM	7.7 ± 0.6 µM	48.4 ± 3.5 µM	15.1 ± 1.7 µM	Minimum bactericidal and fungicidal concentrations (MBC), (MFC), MRSA-2 [10]: -
